Biological target: S1P1 (Homo sapiens (Human), UniProt P21453)
Test: 35S-GTPγS binding assay, S1P1 membranes
Format: biochemical
Conditions: membranes from CHO cells expressing S1P1; read-out: S1P1 GTPyS EC50
Procedure: Membranes were prepared from CHO cells expressing S1P1 or S1P3 for use in ligand and […] binding studies. Cells were suspended in 50 mM TRIS, pH 7.4, 2 mM EDTA, 250 mM Sucrose (buffer A) and 1× Complete protease inhibitor cocktail (Roche), and disrupted at 4° C. by nitrogen decompression using a cell disruption bomb (Parr Instrument). Following centrifugation at 1000 RPM for 10 min at 4° C., the supernatant was suspended in buffer A and centrifuged again at 19000 RPM for 60 min at 4° C. The pellet was then suspended in 10 mM HEPES, pH 7.4, 1 mM EDTA, 250 mM Sucrose (Buffer B), and 1× Complete EDTA-free protease inhibitor cocktail and homogenized using a potter. Membranes were flash frozen in liquid nitrogen and stored at −80° C. [33P]sphingosine 1-phosphate (3000 Ci/mmol; American Radiolabeled Chemicals, Inc.) was added to test compounds in DMSO. […] Binding was performed for 60 min at room temperature on a shaker and bound radioactivity was measured on a PerkinElmer 1450 MicroBeta counter. Specific binding was calculated by subtracting remaining radioactivity in the presence of 1000-fold excess of unlabeled S1P. Binding data were analyzed using the GraphPad Prism program.
The assay was initiated with the addition of 20 μl of 1.5 nM [35S]-GTPγS (1100 Ci/mmol; GE Healthcare) in assay buffer. After 60 min incubation at 30° C. on a shaker, plates were centrifuged for 10 min at 2000 RPM. Supernatant was discarded and membrane bound radioactivity was measured on a PerkinElmer 1450 MicroBeta counter. Triplicate samples were averaged and expressed as % response relative to SIP activation in absence of compound (n=2).

Chain of S1P1 (P21453 whole entry, species assumed): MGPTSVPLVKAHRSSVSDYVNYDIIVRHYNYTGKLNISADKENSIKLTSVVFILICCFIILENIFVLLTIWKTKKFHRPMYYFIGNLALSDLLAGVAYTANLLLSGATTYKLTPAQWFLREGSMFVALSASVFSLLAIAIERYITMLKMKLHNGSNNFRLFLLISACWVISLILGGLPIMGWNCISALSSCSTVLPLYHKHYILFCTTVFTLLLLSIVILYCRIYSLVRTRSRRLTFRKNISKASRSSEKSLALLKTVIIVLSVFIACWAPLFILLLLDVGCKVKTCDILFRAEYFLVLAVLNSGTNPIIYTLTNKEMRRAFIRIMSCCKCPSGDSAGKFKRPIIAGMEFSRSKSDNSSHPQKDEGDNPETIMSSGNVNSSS

SMILES | EC50 [nM]
COCCN(CC1CC1)c1cc(C(=O)Nc2ccc(CN)cc2)ncn1 [Example 1-89] | 1490
CCC(NCc1ccc(NC(=O)c2cc(N(CC3CC3)C3CCCCC3)ncn2)cc1)C(=O)O (stereo not drawn) [Example 1-80] | 287
CCCN(CC1CC1)c1cc(C(=O)Nc2ccc(S(=O)(=O)NCCOC)cc2C)ncn1 [Example 1-106] | 202
COCCNS(=O)(=O)c1ccc(NC(=O)c2cc(N(C)C3CCCCC3)ncn2)cc1 [Example 1-42] | 2280
CCCN(CCC)c1cc(C(=O)Nc2ccc(CN)cc2)ncn1 [Example 1-72] | 497
CN(CC(=O)OC(C)(C)C)Cc1ccc(NC(=O)c2cc(N(CC3CC3)C3CCCCC3)ncn2)cc1 [Example 1-75] | 2690
CC(C)(C)OC(=O)CNCc1ccc(NC(=O)c2cc(N(CC3CC3)C3CCCCC3)ncn2)cc1 [Example 1-73] | 724
CCCN(c1cc(C(=O)Nc2ccc3[nH]ncc3c2)ncn1)C(C)C [Example 1-67] | 68
COCCN(c1cc(C(=O)Nc2ccc3[nH]ncc3c2)ncn1)C1CCCCC1 [Example 1-66] | 32
COCCN(CCOC)c1cc(C(=O)Nc2ccc3[nH]ncc3c2)ncn1 [Example 1-70] | 1110
CCOCN(CCOC)c1cc(C(=O)Nc2ccc(S(N)(=O)=O)cc2C)ncn1 [Example 1-59] | 558
O=C(Nc1ccncc1)c1cc(N(CC2CC2)C2CCCCC2)ncn1 [Example 1-49] | 107
CCNS(=O)(=O)c1ccc(NC(=O)c2cc(N(C)C3CCCCC3)ncn2)cc1 [Example 1-31] | 2000
CCCN(CC1CC1)c1cc(C(=O)Nc2ccc3c(c2)CNCC3)ncn1 [Example 1-92] | 236
CCCN(CC1CC1)c1cc(C(=O)Nc2ccc(CN(C)C)cc2C)ncn1 [Example 1-94] | 265
NC(=O)c1ccc(NC(=O)c2cc(N(CC3CC3)C3CCCCC3)ncn2)cc1 [Example 1-50] | 73
O=C(Nc1ccc(CN2CCNCC2)cc1)c1cc(N(CC2CC2)C2CCCCC2)ncn1 [Example 1-78] | 328

The remaining lines, values ahead:

EC50 [nM] | SMILES
55 | CCCN(CC1CC1)c1cc(C(=O)Nc2ccc(Cn3cncn3)cc2)ncn1 [Example 1-145]
816 | CCCN(CC1CC1)c1cc(C(=O)Nc2ccc(CN(C)CC(=O)O)cc2C)ncn1 [Example 1-128]
1540 | CCCN(CC1CC1)c1cc(C(=O)Nc2cccc(-n3ccnc3C)c2)ncn1 [Example 1-144]
2480 | CCCN(CC1CC1)c1cc(C(=O)Nc2ccc(CN3CCC[C@@H]3COC)cc2C)ncn1 [Example 1-139]
604 | CCCN(CC1CC1)c1cc(C(=O)Nc2ccc(N3CCOCC3)c(F)c2)ncn1 [Example 1-151]
38 | CCCN(CC1CC1)c1cc(C(=O)Nc2cccc(-n3ccnc3)c2)ncn1 [Example 1-147]
807 | CCCN(CC1CC1)c1cc(C(=O)Nc2ccc(CN3CCC3)cc2C)ncn1 [Example 1-154]
1500 | CCCN(CC1CC1)c1cc(C(=O)Nc2ccc(S(=O)(=O)CCCC(=O)O)cc2)ncn1 [Example 1-124]
193 | CS(=O)(=O)c1ccc(NC(=O)c2cc(N(CC3CC3)C3CCCCC3)ncn2)cc1 [Example 1-112]
2040 | Cn1cnnc1-c1ccc(NC(=O)c2cc(N(CC3CC3)C3CCCCC3)ncn2)cc1 [Example 1-136]
346 | O=C(Nc1ccc(Cn2cncn2)cc1)c1cc(N(CC2CC2)C2CCCCC2)ncn1 [Example 1-137]
594 | CCCN(CC1CC1)c1cc(C(=O)Nc2cccc3[nH]ncc23)ncn1 [Example 1-134]
1680 | CCOC(=O)CCCS(=O)(=O)c1ccc(NC(=O)c2cc(N(CC3CC3)C3CCCCC3)ncn2)cc1 [Example 1-131]
2760 | CCCN(CC1CC1)c1cc(C(=O)Nc2ccc3[nH]cnc3c2)ncn1 [Example 1-125]
443 | CCCN(CC1CC1)c1cc(C(=O)Nc2ccc(CN3CCC(C(=O)O)CC3)cc2C)ncn1 [Example 1-138]
2340 | CCCN(CC1CC1)c1cc(C(=O)Nc2ccc(S(C)(=O)=O)cc2)ncn1 [Example 1-110]

From patent US9150519B2, “6-amino-pyrimidine-4-carboxamide derivatives and related compounds which bind to the sphingosine 1-phosphate (S1P) receptor for the treatment of multiple sclerosis” (MERCK SERONO SA, priority 2007, dated 2015)
